Measured values as given in patent US4997827A, “Compositions containing 5-α-dihydro-19-norethisterone and derivatives thereof for in vivo inhibition of aromatase” (Medical Foundation of Buffalo, Inc., priority 1989, dated 1991).
Entries after “also recorded” stand apart in the source; their conditions may differ.

Legend:
[1] = target: T1, rat ovarian aromatase (Rattus norvegicus, UniProt P22443); experiment: in vivo effect on rat ovarian aromatase activity (3H-water method); conditions: for in vivo ovarian aromatase inactivation: Example 7, 50 mg/kg body weight/day, regularly cycling BUF/N rats, compared to sesame oil control; for suppression of the ovarian aromatase activity: 50 mg/kg body weight/day s.c. twice daily for four days, 4-day cycling BUF/N rats
T1 construct: from tissue; host or cells: ovaries of BUF/N inbred female rats, 105,000 x g precipitate of the homogenate
T1 sequence (P22443 1-508): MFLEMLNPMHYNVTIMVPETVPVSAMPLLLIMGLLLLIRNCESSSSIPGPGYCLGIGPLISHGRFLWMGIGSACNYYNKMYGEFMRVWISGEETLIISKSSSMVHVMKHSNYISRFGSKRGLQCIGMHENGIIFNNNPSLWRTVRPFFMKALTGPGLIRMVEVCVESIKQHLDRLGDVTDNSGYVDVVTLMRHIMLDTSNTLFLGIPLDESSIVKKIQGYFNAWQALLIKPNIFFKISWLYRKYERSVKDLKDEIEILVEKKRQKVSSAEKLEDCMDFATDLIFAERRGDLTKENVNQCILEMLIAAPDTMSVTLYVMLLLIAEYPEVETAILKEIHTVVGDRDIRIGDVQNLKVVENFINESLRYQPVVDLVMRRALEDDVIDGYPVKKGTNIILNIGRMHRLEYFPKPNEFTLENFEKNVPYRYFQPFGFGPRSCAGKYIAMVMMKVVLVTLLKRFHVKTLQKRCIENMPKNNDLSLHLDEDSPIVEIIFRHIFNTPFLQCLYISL
Procedure: 5α-DHNET (30 mg/ml sesame oil suspension) was injected s.c. twice daily for four days at a dose of 50 mg/kg body weight/day to BUF/N inbred female rats (50-80 days old) showing regular 4-day estrus cycles starting on the estrus day. The control group received injections of sesame oil in the same manner. Both ovaries were removed 3-4 hours after the final injection. The 105,000×g precipitate fraction of the ovarian homogenate was used for the aromatase assay. Aromatase activity was determined by the ^3 H-water method (F. L. Bellino, S. S. H. Gilani, S. S. Eng, Y. Osawa and W. L. Duax, Biochemistry, 15, 4730-4736 (1976)). The sedimented ovarian enzyme preparation was homogenized in 0.1 M phosphate buffer (pH 7.5) and incubated with [1β-^3 H, 4-^14 C]androstenedione (3.18×10^5 dpm ^3 H, 1.18×10^4 dpm ^14 C, 100.2 ng), NADPH (1 mg) and BSA (5 mg) in 0.1 M phosphate buffer (pH 7.5) in a total volume of 1.5 ml for 30 min at 37° C. Trichloroacetic acid solution (0.2 ml of 10% aqueous solution) was added to stop the enzyme reaction. Activated charcoal was added to the mixture and the spun supernatant was passed through a cotton plugged disposable pipet. The filtrate was counted for simultaneous ^3 H and ^14 C in a liquid scintillation spectrophotometer. The ^3 H-water released from the 1β-^3 H labeled androgen quantitatively corresponds to estrogen formation. The results of the in vivo aromatase suppression assay with 5α-DHNET, 6β-bromoandrostenedione (6β-BRA), and 6α-bromoandrostenedione (6α-BRA) are given in FIGS. 3, 4, and 5, respectively. 5α-DHNET suppressed 67% of the ovarian aromatase, whereas 6β-bromoandrostenedione suppressed 72% and 6α-bromoandrostenedione only an insignificant 10%.
A test of the acetate (C2) and n-butyrate (C4) on the in vivo effect on Ovarian Aromatase Activity was conducted. […] All procedures are the same as described in the above examples. […] The slightly better results obtained with the N-butyrate may be due to its higher solubility in sesame oil, indicating a higher retention in the body.

[2] = test system: human placental aromatase; conditions: cited from earlier work; for concentration for inhibition of human placental aromatase in vitro: for 5α-DHNET a partial inhibition
[3] = test system: NMU-induced breast carcinomas of BUF/N rats; experiment: effect on growth of NMU-induced breast carcinomas; format: in vivo, rat
Procedure: (§1) The animal model for human mammary carcinomas developed by Gullino et al. (P. M. Gullino, H. M. Pettigrew, and F. H. Grantham, J. Natl. Cancer Inst., 54, 401-414 (1975)) was used for this evaluation of 5α-DHNET.N-Nitrosomethylurea (NMU), wet with 3% acetic acid, was dissolved in distilled water (10 mg/ml) and given in three intravenous injections at a dose of 50 mg/kg body weight to BUF/N inbred female rats of 50 days of age on the first injection. The second injection was 4 weeks and the third injection was 8 weeks after the initial administration. The onset of tumors was monitored by daily visual inspection and by palpation of the mammary regions three times a week. The increase in tumor size was monitored by vernier caliper measurements of the subcutaneous mass. One-half the average of the longest and shortest tumor diameters was taken as the value of r in the formula 4/3 πr^3 used to estimate tumor volume. 5α-DHNET in sesame oil was given i.p. daily at a dose of 50 mg/kg body weight/day for 3 weeks to BUF/N female rats having at least one tumor, 2 cm or larger. The number and size of the rumors were monitored on 12 treated and 13 vehicle-only control animals. The mean initial volume of the tumors was 5.10 and 5.53 ml for the control and treated group, respectively. While the tumors in the control group grew very rapidly, growth arrest was clearly observed in 75% (9/12) of the treated group. The death rate was lower in the treated group (3/12 in 4 weeks) than in the control (5/13 in 3 weeks). […] Averaged relative tumor volume is compared in FIG. 7. This also indicates the suppression of tumor growth by the 5α-DHNET treatment. While 24 new tumors developed in 9 control rats in 3 weeks, only 7 developed in 11 treated rats.

[4] = test system: human placental aromatase; experiment: in vitro assay with human placental aromatase; format: biochemical; conditions: in vitro assays
Procedure: 5α-DHNET was previously found to be a very weak in vitro aromatase inhibitor (Y. Osawa, Y. Osawa, C. Yarborough & L. Borzynski, Biochem Soc. Transactions, 656-659 (1983)), requiring a 50 μM concentration for a partial inhibition of human placental aromatase in vitro.

[5] = test system: NMU-induced breast carcinomas of BUF/N rats; experiment: effect on breast tumor incidence, protocol II; format: in vivo, rat
Procedure: The preventive and suppressive effect of 5α-DHNET on breast carcinomas was further examined in order to ascertain that this agent is effective under general conditions rather than limited to a specifically controlled protocol. Only a single dose of NMU was given to the BUF/N rats at 50th day of age and an oophorectomy was carried our at the 6th week after the NMU injection. The 5α-DHNET group received the agent for one week starting at the 6th week at a dose of 50 mg/kg body weight/day as given in FIG. 11. Monitoring was carried out as described in Example 4. After 41 weeks of observation, the tumor incidence was 65%, 33%, and 38% for the control, 5α-DHNET, and OVX group, respectively. The average number of tumors per tumor carrying rat was 2.6, 1.5, and 1.0 for the control, 5α-DHNET, and OVX group, respectively.

[6] = rat, in vivo
[7] = test system: estrus cycle of BUF/N inbred female rats; experiment: effect on the rat estrus cycle; format: in vivo; conditions: for effect on the estrus cycle: single s.c. dose 50 mg/kg body weight on proestrus day
Procedure: BUF/N inbred female rats (50-80 days old) showing regular 4-day estrus cycles were selected by a daily vaginal smear test. A fine powder of the steroid sample was suspended in sesame oil (30 mg/ml) and injected subcutaneously on the proestrus day at a single dose of 50 mg/kg body weight. Vaginal smears were examined daily until normal estrus returned for at least three cycles. The results from the single injection of 5α-DHNET are given in FIG. 1 and those for 6β-bromoandrostenedione are given in FIG. 2 for comparison.

[8] = test system: NMU-induced breast carcinomas of BUF/N rats; experiment: effect on breast tumor incidence, protocol III; format: in vivo, rat
Procedure: The protocol was further modified to evaluate the generality of the effect of 5α-DHNET on breast carcinomas. […] Oophorectomy was also carried out at 3 weeks after the NMU injection. After 37 weeks of monitoring, the tumor incidence was 87%, 38%, and 19% for the control, 5α-DHNET,and OVX group, respectively. The average number of tumors per tumor carrying animal was 2.8, 1.5 and 1.0 for the central, 5α-DHNET, and OVX group, respectively.

[9] = test system: SD rat (SPF); experiment: minimum lethal dose in SD rat; format: in vivo
Procedure: For example, the minimum lethal dose of 5α-DHNET for SD rat (SPF) is greater than 5,000 mg/kg.

[10] = test system: NMU-induced breast carcinomas of BUF/N rats; experiment: preventive effect on incidence of NMU-induced breast carcinoma, first protocol; format: in vivo, rat
Procedure: as §1
The preventive effect of 5α-DHNET to lower the incidence of breast carcinoma was assessed by use of the same animal model as in Example 3 but by modification of the administration protocol. The vehicle-only control was prepared as described in Example 3. Oophorectomy was carried out at the 4th week. 5α-DHNET at a dose of 50 mg/kg body weight/day was given i.p. daily for one week starting at the 4th week. The onset of tumors, their number and location in each animal were recorded daily. The results are given in FIGS. 9 and 10 and in Table 2. The control group developed tumors in 100% (16/16) of the animals by the 98th day after the first NMU injection. At this point tumor incidence for the 5α-DHNET treated and oophorectomized groups was 13% (2/16) and 38% (6/16), respectively. […] At the 180th day the death rate for the 5α-DHNET treated and oophorectomized group was 25% and 31%, respectively, compared to 69% for the control group. The mean latent period of tumor development was 72, 101, and 116 days for the control, OVX, and 5α-DHNET group, respectively.

C#C[C@]1(OC(C)=O)CC[C@H]2[C@@H]3CC[C@H]4CC(=O)CC[C@@H]4[C@H]3CC[C@@]21C [5α-DHNET Ac, 5α-DHNET acetate]
in vivo ovarian aromatase inactivation [1]: 68.2%

C#C[C@]1(OC(=O)CCC)CC[C@H]2[C@@H]3CC[C@H]4CC(=O)CC[C@@H]4[C@H]3CC[C@@]21C [5α-DHNET But, 5α-DHNET butyrate]
in vivo ovarian aromatase inactivation [1]: 79.4%

C#C[C@]1(O)CC[C@H]2[C@@H]3CC[C@H]4CC(=O)CC[C@@H]4[C@H]3CC[C@@]21C [5α-DHNET, 5α-dihydro-19-norethisterone]
concentration for inhibition of human placental aromatase in vitro [2]: 50 µM | in vitro aromatase inhibitory activity ([2]; previous in vitro studies): essentially inactive | effect on growth of breast carcinomas ([3]; 50 mg/kg body weight/day daily for three weeks): significantly suppressed the growth of breast carcinomas | animals with growth arrest of tumors ([3]; 50 mg/kg body weight/day i.p. for 3 weeks, 9/12 treated): 75% | death rate ([3]; 50 mg/kg body weight/day i.p. for 3 weeks, in 4 weeks): 3/12 | initially observed tumors disappeared ([3]; 3 week period, 6/47): 13% | tumors regressed ([3]; 3 week period, 20/48): 42% | tumors growing ([3]; 3 week period, 28/48): 58% | Total No. of Tumors disappeared ([3]; 3 wk): 6 | Total No. of Tumors growing ([3]; 3 wk): 28 | Total No. of Tumors regressed ([3]; 3 wk): 20 | share of responded animals maintained without a growth of tumors after stopping administration ([3]; another 3 weeks after stopping): approximately half | Total No. of Tumors 3 wk ([3]; end of 3 wk treatment, 11 rats): 48 | Total No. of Tumors newly developed ([3]; in 3 weeks, 11 treated rats): 7 | Total No. of Tumors start ([3]; start of treatment, 11 rats): 47 | suppression of the ovarian aromatase activity [1]: 67% | in vivo ovarian aromatase inactivation [1]: 67.9% | potency as aromatase inhibitor relative to 6α- and 6β-bromoandrostenedione [4]: thousand-fold less potent | tumor incidence ([5]; after 41 weeks, single NMU dose, 50 mg/kg/day for one week from 6th week): 33% | average number of tumors per tumor carrying rat ([5]; protocol II): 1.5 | body weight compared to control rats [6]: did not show any significant difference of body weight from the control rats | animals with cessation of estrus cycles / animals tested ([7]; single s.c. dose 50 mg/kg body weight): 4/4 | effect on the estrus cycle [7]: cessation of the estrus cycles for at least four cycles | tumor incidence ([8]; after 37 weeks, treatment 3 weeks after single NMU dose): 38% | average number of tumors per tumor carrying animal ([8]; protocol III): 1.5 | minimum lethal dose [9]: greater than 5,000 mg/kg | tumor incidence ([10]; 98th day after first NMU injection, 50 mg/kg/day i.p. one week from 4th week, 2/16): 13% | death rate ([10]; 180th day after first NMU injection, 4/16): 25% | % Tumor Incidence ([10]; 180th day after first NMU injection, 8/16): 50% | effect on incidence of breast carcinoma and death rate ([10]; Examples 4-6, given at different times): significantly lower the incidence of breast carcinoma and the death rate as effectively as complete oophorectomy | Average No. of tumors per tumor-carrying rat ([10]; first protocol): 1.8 | Mean Latent Period of tumor development ([10]; first protocol): 116 days

C[C@]12CCC(=O)C=C1[C@@H](Br)C[C@@H]1[C@@H]2CC[C@]2(C)C(=O)CC[C@@H]12 [6α-bromoandrostenedione, reference compound]
concentration for inhibition of human placental aromatase in vitro [2]: 0.0082 µM | suppression of the ovarian aromatase activity [1]: 10%

C[C@]12CCC(=O)C=C1[C@H](Br)C[C@@H]1[C@@H]2CC[C@]2(C)C(=O)CC[C@@H]12 [6β-bromoandrostenedione, reference compound]
concentration for inhibition of human placental aromatase in vitro [2]: 0.056 µM | suppression of the ovarian aromatase activity [1]: 72% | effect on the estrus cycle ([7]; 50 mg/kg): no effect on the cycle; also recorded: failed to affect the estrus cycle
